Laboratory results from patent US4238473A, “Artificial oligosaccharide antigenic determinants” (priority 1975, dated 1980).
One block for each compound: values may come before it.

Experiments:
[1] = tested on: antibodies raised to this conjugate (antigen 12); experiment: Hapten inhibition of precipitation of anti-12 sera with (β-D-gal-O(CH2)8 CONH)23 -HSA; assay type: binding, rabbit; conditions: (β-D-gal-O(CH2)8 CONH)23 -HSA as the precipitating antigen; for IC50: read-out: concentration giving 50% inhibition of precipitation
antisera raised to 13 = experiment: Hapten inhibition of precipitation between 13 and antisera raised to 13; assay type: binding, rabbit
Protocol: (§1) This antigen was prepared from the hydrazide derivative of compound 2 using the acyl azide coupling method described in example XII. […] Proof of the hapten specific nature of the response comes from hapten specific inhibition of precipitation between 13 and antisera raised to 13.

[2] = tested on: antibodies raised to this conjugate (antigen 12); assay type: binding, rabbit; conditions: 50 μl of crude sera raised to antigen 12
From the text: (§2) For rabbits the immunization protocol was that described by Martineau^2 and for goats that of Marcus and Grollman^3. The course of the immunization was followed by quantitative precipitin tests on samples of blood withdrawn at various times. The procedures used were all standard to the field of immunology^4.

San Juan rabbits = conditions: six San Juan rabbits, antigen in Freund's complete adjuvant
From the text: as §2

rabbits = experiment: Immunization of rabbits with 13, specificity of sera; assay type: in vivo, rabbit; conditions: rabbits immunized with 13
Protocol: as §1

[3] = tested on: antiserum raised against [Le^a -O(CH2)8 CONH]30 -BSA; experiment: Maximum precipitation of anti-[Le^a -O(CH2)8 CONH]30 -BSA antiserum against test antigen; assay type: binding, rabbit; conditions: as test antigen against antiserum raised to [Le^a -O(CH2)8 CONH]30 -BSA
Protocol: The above antiserum had been raised against the artificial Lewis-a antigen [Le^a -O(CH2)8 CONH]30 -BSA. The maximum precipitation against [Le^a -O(CH2)8 CONH]28 -HSA as test antigen was 277 μg of antibody per 50 μl of antiserum.

[4] = tested on: human Lewis-a blood group substance; experiment: Goat immunization, cross-reaction of antisera with natural substance; assay type: in vivo; conditions: goat immunized with the antigen
From the text: (§3) To further explore the extent of cross reactions between antibodies raised to the artificial Le^a antigens and human Lewis-a blood group substance and to obtain larger amounts of antisera, a goat was immunized with [Le^a -O(CH2)8 CONH]30 -BSA.

[5] = tested on: human blood group Lewis-(a+b-) red cells; experiment: Agglutination of red cells by goat antisera to artificial Le^a antigen; assay type: cell-based; conditions: goat antisera after appropriate treatment
From the text: as §3

Lewis (a-) red cells = experiment: as above; assay type: cell-based, human; conditions: goat antisera after appropriate treatment
From the text: as §3

[6] = tested on: Rabbit antisera raised to Le^a -BSA antigens; experiment: Immunodiffusion of rabbit antisera raised to Le^a -BSA antigens; assay type: binding
[7] = at the concentration that methyl β-D-glcNAc was effective

- IC50 [1]: 6.6 mM
Compound: OC[C@H]1OC(O)[C@H](O)[C@@H](O)[C@H]1O (stereo partly drawn) [galactose]

- IC50 [1]: 70 mM
Compound: OC[C@H]1O[C@@H](O[C@H]2[C@H](O)[C@@H](O)C(O)O[C@@H]2CO)[C@H](O)[C@@H](O)[C@H]1O (stereo partly drawn) [lactose]

- IC50 [1]: 33 mM
Compound: CO[C@H]1O[C@H](CO)[C@H](O)[C@H](O)[C@H]1O [methyl α-D-galactopyranoside]

Compound: CO[C@@H]1O[C@H](CO)[C@H](O)[C@H](O)[C@H]1NC(C)=O [methyl β-D-galNAc]
- inhibition of precipitation (antisera raised to 13; [7]): virtually no inhibition

- IC50 [1]: 0.83 mM
Compound: CO[C@@H]1O[C@H](CO)[C@H](O)[C@H](O)[C@H]1O [methyl β-D-galactopyranoside]

Compound: CO[C@@H]1O[C@H](CO)[C@@H](O)[C@H](O)[C@H]1NC(C)=O [methyl β-D-glcNAc]
- inhibition of precipitation (antisera raised to 13; precipitation between 13 and antisera raised to 13): 60-80%

Compound: CO[C@@H]1O[C@H](CO)[C@@H](O)[C@H](O)[C@H]1O [methyl β-D-glucopyranoside]
- inhibition of precipitation [1]: approximately no inhibition
- inhibition of precipitation (antisera raised to 13; [7]): virtually no inhibition

Compound: (α-D-gal-O(CH2)8 CONH)17 -BSA
- maximum amount of antibody precipitated [2]: 87 µg

Compound: (β-D-gal-O(CH2)8 CONH)24 -BSA [antigen 12]
- Antibody levels upon completion of the schedule (average) (San Juan rabbits): 277 μg per 50 μl sera
- maximum amount of antibody precipitated [2]: 396 µg

Compound: (β-D-glcNAc-O(CH2)8 CONH)25 -BSA [antigen 13]
- specificity of sera from immunized rabbits (rabbits): high specificity for antigens containing the β-D-glcNAc hapten

Compound: [Le^a -O(CH2)8 CONH]28 -HSA
- maximum precipitation [3]: 277 μg of antibody per 50 μl of antiserum

Compound: [Le^a -O(CH2)8 CONH]30 -BSA
- cross-reaction of antisera with human Lewis-a blood group substance [4]: showed the expected cross-reaction
- agglutination by the antisera [5]: effectively agglutinated
- agglutination by the antisera (Lewis (a-) red cells): did not agglutinate

Compound: dextran
- line of precipitation on immunodiffusion [6]: No line of precipitation

Compound: polylysine
- line of precipitation on immunodiffusion [6]: No line of precipitation
